What is called IC50 is the midpoint of a concentration-inhibition curve. Low readings indicate inhibition by little substance, high ones a need for much substance. What is called EC50 is the concentration at which the effect is half-maximal. In general, amount remaining refers to what is left of the initial amount, in per cent. A higher amount remaining goes with greater stability.

Some results are limits rather than exact numbers.

The results in this text go back to paper PMC6240685, “Strong Inhibitory Effect, Low Cytotoxicity and High Plasma Stability of Steroidal Inhibitors of N-Methyl-D-Aspartate Receptors With C-3 Amide Structural Motif” (Frontiers in Pharmacology, 2018).

Data set [1] has as its system native NMDARs. The data set can be described thus: Inhibition of native NMDAR responses in cultured hippocampal neurons. Type of data set: cell-based, rat. As to the method: FIGURE 8 The effect of compound 6 on peak and steady-state responses of native NMDARs, AMPARs, and GABARs. (A) Examples of traces obtained from cultured hippocampal neurons. Compound 6 (10 μM) was pre-applied in the absence of agonists followed by co-application with NMDA (100 μM), AMPA (100 μM), and GABA (5 μM) (duration of agonist and steroid application is indicated by filled and open bars, respectively). (B) Bar graph represents the mean values of relative changes in the peak (black columns) and steady-state (red columns) responses of native NMDARs, AMPARs, and GABARs recorded in the continuous presence of 10 μM compound 6. Error bars represent SD from five independent measurements. Asterisks mark significance at the level of P < 0.05 (Paired t-test). […]
Electrophysiological experiments were performed on HEK293 cells transfected with plasmids encoding rat GluN1-1a/GluN2A-D and GFP genes as described previously, ([Petrovic et al., 2005]; [Cais et al., 2008]; [Korinek et al., 2010]) or on primary hippocampal neurons prepared from P0–P1 rats, plated on collagen/poly-D-lysine-coated glass coverslips at a density of ∼50,000 cells/cm^2, and grown in Neurobasal A medium with B27 Supplement (Gibco). […] Agonist-induced responses were low-pass filtered at 2 kHz, digitally sampled at 5 kHz, and analyzed with pClamp software version 10.5 (Molecular Devices). […]

For data set [2], the system named is HepG2 cells. In words: ROS induction (CM-H2DCFDA). In kind it is cell-based. The note with it: Homo sapiens, HepG2, 72 h; read-out: ROS induction EC50. As to the method: (A) Hepatotoxicity provoked by compound 4 was assessed after 72 h incubation of HepG2 cells in low glucose medium (5 mM) in the presence of compound 4 (0.25–100 μM). (B) Mitochondrial toxicity was determined after 24 h incubation of HepG2 cells in either high glucose medium (25 mM) or galactose medium (10 mM) in the presence of compound 4 (2.5–150 μM). Cell viabilities were recorded in triplicates in three independent experiments and expressed as percentage of vehicle control ± SD and IC50 values were determined by GraphPad Prism software using following equation: Y = Bottom + (Top–Bottom)/(1 + 10ˆ((LogIC50-X)^∗HillSlope)), where IC50 is the concentration of compound 4 that inhibits cell viability half way between Bottom and Top plateaus, X is compound 4 concentration and HillSlope describes the steepness of the family of curves. […] (C) Concentration-dependent effect on ROS level. HepG2 cells were treated with compound 4 (0.25–100 μM) for 72 h, and then the intracellular level of total ROS in relative fluorescence units (RFU) was detected. The data are presented as the mean ± SD for at least three independent experiments and each experiment was carried out in triplicate. Final concentration of DMSO in samples was 1%. […] Single asterisks (^∗) indicate a significant difference (P < 0.05) compared to 1% DMSO control (one-way ANOVA with Dunnett’s post-test).
The effect of neurosteroids on oxidative stress was determined using general oxidative stress indicator CM-H2DCFDA (Thermo Fisher Scientific, Waltham, MA, United States) according to the manufacturer’s instructions. Briefly HepG2 cells were seeded in a 96-well plate at a density of 13,500 cells per well. After 24 h, the tested neurosteroids were added to the culture media and incubated for 72 h. Subsequently, cells were washed with HBSS, treated with 100 μL of 1 μM CM-H2DCF-DA solution in HBSS and incubated for 1 h in the dark at 37°C. Finally, cells were washed three times with HBSS and the fluorescence was measured using 495 excitation and 527 emission in fluorescence microplate reader (Cytation 3, Winooski, VT, United States). IC50 index values were determined by GraphPad Prism version 5.00 for Windows (GraphPad Software, La Jolla, CA, United States).

Data set [3] is described as follows: Plasma stability, rat plasma. Type of data set: in vitro ADME. The following applies: rat, plasma.

As for `C[C@@]12CCC[C@H]1[C@@H]1CC[C@@H]3C[C@H](NC(=O)[C@@H](N)CC(=O)O)CC[C@]3(C)[C@H]1CC2` [Compound 6, (S)-3-amino-4-(((3R,5R,8S,9S,10S,13S,14S)-10,13-dimethylhexadecahydro-1H-cyclopenta[a]phenanthren-3-yl)amino)-4-oxobutanoic acid], the “inhibition of steady-state vs peak response, NMDARs” value in data set [1] (10 μM compound present continuously, NMDA 100 μM) is “more efficient inhibitor of tonically activated receptors at the steady–state”. Moreover, 8.3 ± 2.1 µM corresponded to half-maximal inhibition in data set [1] (100 μM NMDA, hippocampal neurons) (IC50). Also, the half-maximal effective concentration (EC50) in data set [2] was above 200 µM. For the same compound, in data set [3], the amount remaining at 8 h, 42.1 μg/mL came out at 97%.
